Results on three compounds are retold here after patent US20250177359A1, “COMPOUNDS FOR USE IN THE TREATMENT OF CANCER AND INFLAMMATORY CONDITIONS” (priority 2022, published 2025).

Where two headings read alike, the source gives them in different places.

In one series the target is T1, PARP15 (Homo sapiens, UniProt Q460N3).
T1 sequence (Q460N3 1-678): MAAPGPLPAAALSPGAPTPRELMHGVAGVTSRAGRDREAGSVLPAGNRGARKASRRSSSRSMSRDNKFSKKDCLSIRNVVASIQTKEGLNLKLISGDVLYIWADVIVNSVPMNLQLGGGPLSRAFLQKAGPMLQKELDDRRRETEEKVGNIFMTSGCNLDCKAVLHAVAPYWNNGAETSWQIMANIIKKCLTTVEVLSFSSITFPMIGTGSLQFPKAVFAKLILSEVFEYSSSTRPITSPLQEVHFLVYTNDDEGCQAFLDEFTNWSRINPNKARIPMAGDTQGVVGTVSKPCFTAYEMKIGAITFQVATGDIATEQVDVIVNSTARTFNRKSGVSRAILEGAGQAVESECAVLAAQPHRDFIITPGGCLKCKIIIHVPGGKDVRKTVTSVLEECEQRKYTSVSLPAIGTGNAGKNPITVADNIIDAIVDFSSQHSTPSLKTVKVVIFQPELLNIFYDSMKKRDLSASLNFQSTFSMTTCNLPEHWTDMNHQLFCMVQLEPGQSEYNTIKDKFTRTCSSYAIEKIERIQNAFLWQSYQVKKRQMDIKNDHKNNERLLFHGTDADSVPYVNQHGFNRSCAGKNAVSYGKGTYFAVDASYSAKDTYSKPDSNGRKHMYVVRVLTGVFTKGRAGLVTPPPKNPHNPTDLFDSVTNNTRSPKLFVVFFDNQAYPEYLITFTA
Briefly: biochemical. As for the experimental part:
(§1) All starting materials, reagents, and solvents were purchased from common commercial suppliers and were used as such without further purification. […] Organic solutions were dried over anhydrous Na2SO4 and concentrated with rotary evaporator at low pressure. All the reactions were routinely checked by thin-layer chromatography (TLC) on silica gel 60F254 (Merck) and visualized by using UV and iodine. Flash chromatography separations were carried out on Merck silica gel 60 (mesh 230-400) or by using automated Buchi Reveleris X2-UV with column FP Ecoflex Si 12 g. Yields were of purified products and were not optimized. ^1HNMR spectra were recorded at 400 MHz (Bruker Avance DRX-400), while ^13CNMR spectra were recorded at 101 MHz (Bruker Avance DRX-400). Chemical shifts are given in ppm (δ) relative to TMS. […] Mating constant (J) are reported in Hz. The purity of the tested compounds was evaluated by HPLC analysis using Jasco LC-4000 instrument equipped with a UV-Visible Diode Array Jasco-MD4015 (Jasco Corporation, Tokyo, Japan), and XTerra MS C18 column, 5 μm×4.6 mm×150 mm (Waters Corporation, Massachusetts, USA). Chromatograms were analyzed by ChromNAV2.0 Chromatography Data System software. […] The peak retention time (ret. time) is given in minutes. […] 1-Isobutoxy-4-methoxy-2-nitrobenzene (113). Isobutyl alcohol (0.6 mL, 6.43 mmol) was added, under nitrogen atmosphere at 0° C., to a suspension of NaH (0.26 g, 6.43 mmol) in dry DMF. After 15 minutes, 1-fluoro-4-methoxy-2-nitrobenzene 112 (1 g, 5.84 mmol) was also added and the reaction mixture was stirred at 80° C. for 4 h. […] (2-Isobutoxy-5-methoxyphenyl)amine (114). Zn (1.57 g, 24 mmol) and NH4C1 (2.45 g, 40 mmol) were added to a solution of 113 (0.46 g, 2 mmol) in acetone/H2O (50 mL, ratio 5:1). The reaction mixture was stirred at 60° C. for 3 h and, then, it was filtered over celite. […] N-(2,5-diethoxyphenyl)thiourea (55). […] N-(2-isobutoxy-5-methoxyphenyl)thiourea (115). […] A solution of Br2 (0.2 mL, 3.3 mmol) in CHCl3 (5 mL) was slowly added to a suspension of 45 (0.6 g, 3.3 mmol) in CHCl3 (13 mL), at 0° C. The reaction mixture was stirred at r.t. for 4 h and, then, a 10% solution of Na2SO3 in water was added to the mixture. […] 4,7-Diethoxy-1,3-benzothiazol-2-amine (66). […] 4-Isobutoxy-7-methoxy-1,3-benzothiazol-2-amine (116). […] Hydrazine hydrate (0.23 mL, 4.77 mmol) and CH3COOH (0.12 mL, 2.1 mmol) were added to a suspension of 56 (0.29 g, 1.59 mmol) in ethylene glycol (8 mL), and the reaction mixture was stirred for 24 h at 125° C. […] 6-Ethyl-2-hydrazino-1,3-benzothiazole (69). […] 6-Ispropyl-2-hydrazino-1,3-benzothiazole (70). […] 2-Hydrazino-4,7-dimethoxy-1,3-benzothiazole (73). […] 2-Hydrazino-5,7-dimethoxy-1,3-benzothiazole (75). […] 2-Hydrazino-4,7-Diethoxy-1,3-benzothiazole (77). […] 2-Hydrazino-5-methyl[1,3]thiazolo[5,4-b]pyridine (100). […] A solution of 67 (0.13 g, 0.65 mmol) in formic acid (5 mL) was refluxed for 10 h. The reaction mixture was then poured into ice/water and the pH was neutralized using a saturated solution of NaHCO3.

For a further series, the target named is T2, PARP10 (Homo sapiens, UniProt Q53GL7).
T2 construct: made in house
T2 sequence (Q53GL7 1-1025): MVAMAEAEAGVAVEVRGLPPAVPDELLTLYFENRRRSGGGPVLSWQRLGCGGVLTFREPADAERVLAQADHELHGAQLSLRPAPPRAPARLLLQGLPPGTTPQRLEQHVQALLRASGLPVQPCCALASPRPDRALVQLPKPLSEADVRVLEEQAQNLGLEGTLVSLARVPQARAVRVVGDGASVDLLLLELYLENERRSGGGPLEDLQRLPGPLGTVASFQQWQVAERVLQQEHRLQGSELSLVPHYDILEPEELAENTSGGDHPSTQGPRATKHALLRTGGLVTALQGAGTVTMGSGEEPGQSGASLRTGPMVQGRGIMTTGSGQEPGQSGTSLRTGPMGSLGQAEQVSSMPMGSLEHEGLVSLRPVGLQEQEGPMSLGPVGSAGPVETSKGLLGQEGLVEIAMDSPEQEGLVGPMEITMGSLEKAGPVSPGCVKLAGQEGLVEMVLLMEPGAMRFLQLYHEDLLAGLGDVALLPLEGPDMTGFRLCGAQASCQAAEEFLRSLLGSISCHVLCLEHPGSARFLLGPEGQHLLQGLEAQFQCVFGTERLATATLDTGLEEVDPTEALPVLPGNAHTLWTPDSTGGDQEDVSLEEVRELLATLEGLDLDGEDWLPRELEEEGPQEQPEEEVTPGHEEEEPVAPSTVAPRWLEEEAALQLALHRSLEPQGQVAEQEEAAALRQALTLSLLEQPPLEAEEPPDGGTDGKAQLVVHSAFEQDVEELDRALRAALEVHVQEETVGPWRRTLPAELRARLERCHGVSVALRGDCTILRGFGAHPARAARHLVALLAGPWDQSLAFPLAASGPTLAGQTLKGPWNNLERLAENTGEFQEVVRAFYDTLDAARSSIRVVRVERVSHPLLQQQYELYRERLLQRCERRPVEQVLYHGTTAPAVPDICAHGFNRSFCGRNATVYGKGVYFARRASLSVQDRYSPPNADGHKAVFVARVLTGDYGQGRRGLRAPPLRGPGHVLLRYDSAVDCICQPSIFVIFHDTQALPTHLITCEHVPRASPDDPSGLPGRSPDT
Briefly: Activity assay measuring NAD+ consumption, PARP10 (Tables 1-3). Format: biochemical.

Series [1] in a line: Toxicity using the WST-1 assay.
The target in a further series is T3, TNKS2 (Homo sapiens, UniProt Q9H2K2).
T3 sequence (Q9H2K2 1-1166): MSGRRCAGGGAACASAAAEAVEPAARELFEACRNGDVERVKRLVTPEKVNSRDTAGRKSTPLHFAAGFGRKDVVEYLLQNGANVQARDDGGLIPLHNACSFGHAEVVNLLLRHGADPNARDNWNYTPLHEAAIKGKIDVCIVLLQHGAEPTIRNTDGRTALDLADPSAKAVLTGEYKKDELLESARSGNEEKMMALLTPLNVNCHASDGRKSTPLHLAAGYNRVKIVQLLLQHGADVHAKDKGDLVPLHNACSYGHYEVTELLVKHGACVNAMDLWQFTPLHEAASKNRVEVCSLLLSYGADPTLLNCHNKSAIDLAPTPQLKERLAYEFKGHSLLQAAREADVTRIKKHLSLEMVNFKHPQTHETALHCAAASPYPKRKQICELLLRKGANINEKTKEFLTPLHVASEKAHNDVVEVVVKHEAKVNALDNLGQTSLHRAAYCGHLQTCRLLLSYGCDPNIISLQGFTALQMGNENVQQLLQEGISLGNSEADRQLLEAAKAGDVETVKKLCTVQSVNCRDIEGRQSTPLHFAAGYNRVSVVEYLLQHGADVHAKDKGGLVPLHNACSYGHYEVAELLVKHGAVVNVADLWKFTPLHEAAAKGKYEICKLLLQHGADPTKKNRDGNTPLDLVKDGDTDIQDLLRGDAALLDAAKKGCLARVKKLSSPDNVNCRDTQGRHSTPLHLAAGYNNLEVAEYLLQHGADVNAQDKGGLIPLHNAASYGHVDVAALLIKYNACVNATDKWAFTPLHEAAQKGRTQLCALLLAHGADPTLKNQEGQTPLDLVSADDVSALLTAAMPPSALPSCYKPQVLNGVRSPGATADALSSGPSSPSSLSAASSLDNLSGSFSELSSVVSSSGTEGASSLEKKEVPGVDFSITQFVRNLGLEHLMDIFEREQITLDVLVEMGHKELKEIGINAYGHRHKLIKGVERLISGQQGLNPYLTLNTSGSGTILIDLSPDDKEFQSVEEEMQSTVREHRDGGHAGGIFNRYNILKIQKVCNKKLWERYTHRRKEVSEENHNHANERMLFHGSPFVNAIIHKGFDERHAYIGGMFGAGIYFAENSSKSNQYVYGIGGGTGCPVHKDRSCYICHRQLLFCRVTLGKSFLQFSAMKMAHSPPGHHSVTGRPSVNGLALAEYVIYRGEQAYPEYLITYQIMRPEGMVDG
Briefly: biochemical. Conditions: read-out: TNKS2 IC50; NAD+ consumption assay; > less than 50% inhibition at highest concentration, >> no inhibition. As for the experimental part:
as §1

The target of the next series is T4, PARP2 (Homo sapiens, UniProt Q9UGN5).
T4 construct: made in house
T4 sequence (Q9UGN5 whole entry): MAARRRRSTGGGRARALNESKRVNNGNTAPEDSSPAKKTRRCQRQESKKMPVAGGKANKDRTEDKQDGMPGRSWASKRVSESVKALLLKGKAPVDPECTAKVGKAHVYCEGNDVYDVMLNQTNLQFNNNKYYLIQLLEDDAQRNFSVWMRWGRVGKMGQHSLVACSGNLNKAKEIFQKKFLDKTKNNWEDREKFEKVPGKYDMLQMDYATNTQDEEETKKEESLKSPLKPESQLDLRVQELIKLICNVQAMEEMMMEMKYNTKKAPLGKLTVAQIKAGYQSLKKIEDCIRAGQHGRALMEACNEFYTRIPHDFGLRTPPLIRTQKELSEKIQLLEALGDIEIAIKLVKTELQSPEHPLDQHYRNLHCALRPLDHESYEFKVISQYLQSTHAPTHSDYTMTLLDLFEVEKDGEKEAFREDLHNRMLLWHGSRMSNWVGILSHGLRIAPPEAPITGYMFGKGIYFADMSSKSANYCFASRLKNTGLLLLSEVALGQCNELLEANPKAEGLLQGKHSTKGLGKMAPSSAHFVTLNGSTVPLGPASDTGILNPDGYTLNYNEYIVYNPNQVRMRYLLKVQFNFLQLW
Description: biochemical. Format: biochemical. The following applies: NAD+ consumption assay; > less than 50% inhibition at highest concentration, >> no inhibition. As for the experimental part: as §1

The mark [2] stands for this setting: PARP10 pIC50 ± SEM, Tables 1-3 assay.

What is called IC50 is the concentration that inhibits the measured activity by half. Take `COc1ccc(OCC(C)C)c2c1sc1nnc(N)n12` [Compound 110, 5-Isobutoxy-8-methoxy[1,2,4]triazolo[3,4-b][1,3]benzothiazol-3-amine]: the IC50 at PARP15 was 0.18 µM; against PARP10 (PARP10 IC50, Tables 1-3 assay) it was 0.08 µM; on PARP10 (setting [2]) it was 0.0813 µM.
`Oc1ccc(O)c2c1sc1nncn12` [Compound 17, [1,2,4]Triazolo[3,4-b][1,3]benzothiazol-5,8-diol]: the “toxicity (WST-1 assay)” value in series [1] was “dose dependent toxicity”. The IC50 on TNKS2 worked out at 3.1 µM; against PARP2, 0.24 µM.
Consider `COc1cc2sc3nnc(N)n3c2cc1OC` [Compound 104, 6,7-Dimethoxy[1,2,4]triazolo[3,4-b][1,3]benzothiazol-3-amine], for which the IC50 at PARP15 (PARP15 IC50, Tables 1-3 assay) is 0.17 µM; on PARP10 (PARP10 IC50, Tables 1-3 assay), 0.11 µM; against PARP10 (setting [2]), 0.107 µM.
